Converted amounts (≈) assume the structure as drawn. Read-outs that look alike come from different tables or passages of the source.
What was measured:
Mtb = tested on: Mtb; parameters: method as in Jayaram et al., 2003; conditions: 10 mg/kg, 12 daily oral doses; ref Jayaram et al., 2003; cited from earlier work
Mtb CDC1551 = assay: Resazurin microtiter assay (REMA) for MICs; format: cell-based; conditions: Mycobacterium tuberculosis, CDC1551, 168 h
HepG2 cells = assay: MTT cell viability cytotoxicity assay, HepG2; format: cell-based, human; conditions: for IC50: Homo sapiens, HepG2, 48 h, read-out: IC50 HepG2; for SI (IC50/MIC) HepG2: IC50 HepG2 / MIC Mtb, 2880 min; for selectivity index: on all three cell lines (HepG2, Vero, THP-1)
Method: Cytotoxicities of the aurones were evaluated in Vero cells (ATCC), HepG2 (ATCC), and THP-1 cells (ATCC) using the standard microculture tetrazolium (MTT) cell viability assay. Media used for the Vero cells was DMEM supplemented with 10% calf serum; for HepG2 cells the media used was DMEM supplemented with 20% calf serum; and for THP-1 cells the media used was RPMI-1640 supplemented with 10% calf serum (HyClone Cosmic Calf, GE Lifesciences). Cells were seeded into a 96-well plate. For THP-1 cells, phorbol-12-myristate-13-acetate (PMA) was used to induce the monocytes to develop into macrophages for 3 days before the cytotoxicity assay. A series of two-fold dilutions of aurones or RIF were added into the cell culture media in microplates to determine the concentration that eliminated 50% of eukaryotic cell growth in a 2-days incubation. Cells without drug treatment were incubated with the vehicle buffer and served as negative controls (100% viable). Cells treated with digitonin (100 μg/mL) served as the positive controls. After a 2-days incubation, 10 μL of MTT reagent was loaded into each well, and incubated for 3 h at 37°C. Hundred microliter of detergent solution was then added into each well and the 96-well plates were incubated for 2 h. Absorbance of each sample in the 96-well plates was measured at […]. Viability of each drug-treated sample was calculated as the absorbance of the sample divided by the absorbance of the untreated sample multiplied by 100.
We determined MICs of the top six aurone leads (AA2A, AA8, 9501, 9504, 9505, and 9510) using the standard resazurin microtiter assay (REMA) ([Palomino et al., 2002]). The MIC was defined as the lowest drug concentration that prevented the color change of resazurin from blue to pink. The MICs for 9504, 9505, 9501, 9510, AA2A, and AA8 were 6.25, 12.5, 25, 25, 25, and 50 μM, respectively (Table 2). We evaluated the cytotoxic effects of aurones to human liver cells HepG2, primate kidney Vero cells and human monocyte THP-1 cells after a 2-days incubation using the microculture tetrazolium (MTT) cell viability assay. Concentration gradients of the selected aurones or RIF (as a control) were incubated with the three cell lines. We calculated half maximal inhibitory concentration (IC50) of aurones on these three cell lines. By comparing MICs with IC50, we calculated the selectivity index (SI) for each aurone lead as […].

THP-1 cells = assay: MTT cell viability cytotoxicity assay, THP-1 derived macrophages; format: cell-based, human; conditions: for IC50: Homo sapiens, THP-1, 48 h, read-out: IC50 THP-1; for SI (IC50/MIC) THP-1: IC50 THP-1 / MIC Mtb, 2880 min
Vero cells = assay: MTT cell viability cytotoxicity assay, Vero; format: cell-based, primate; conditions: for IC50: Primates, Vero, 48 h, read-out: IC50 Vero; for SI (IC50/MIC) Vero: IC50 Vero / MIC Mtb, 2880 min
[1] = tested on: tdTomato-expressing Mtb CDC1551 strain; assay: microbe, parasite or virus in culture; format: cell-based, Mycobacterium tuberculosis; conditions: aurones at 100 μM, 3 days co-incubation, tdTomato fluorescence intensity; for inhibition at 100 µM: Mycobacterium tuberculosis, 72 h, read-out: Inhibitory rate
[2] = tested on: purine nucleoside phosphorylase (PNP); assay: Purine nucleoside phosphorylase counter-assay; format: biochemical; conditions: PNP 0.2 U, MESG 50 μM, potassium phosphate 10 mM
Method: FIGURE 4 AA2A and 9504 inhibit Mtb-Cs activity. (A) Assay to measure the ability of aurones to inhibit Cs of Mtb. (B) SDS-PAGE analysis of extracted rRv3227 (left) and rRv2540c (right). Lane 1: marker (PageRuler^M Unstained); 2: crude protein extracts; 3–5: samples eluted from Ni-column by 125, 250, and 500 mM imidazole, respectively; 6: the concentrated proteins eluted by 500 mM imidazole. (C) Evaluation of 9501, 9504, 9505, and 9510 inhibitory effects on Mtb-Cs activity. (D) Evaluation of AA2A and AA8 inhibitory effects on Mtb-Cs activity. Data are means of three independent experiments ± S.D. The reaction mixture comprised Mtb-Cs, various concentrations of aurone leads, EPSP ([…]), FMN (0.04 mM) and NADH (0.3 mM). The production of chorismate from the enzymatic reaction was determined by measuring Pi production using MESG (0.2 mM) and PNP (1 U). […] The reaction mixture comprised PNP (0.2 U), MESG (50 μM), potassium phosphate (10 mM), and aurones (50 μM for 9501, 9504, 9505, and 9510; 200 μM for AA2A and AA8). No significant differences (P > 0.05) were identified between each of the aurone-treated group and the positive control group. Data are means of three independent experiments ± S.D.

[3] = tested on: intracellular Mtb in THP-1 cell derived macrophages; assay: Efficacy against intracellular Mtb in THP-1 derived macrophages; format: cell-based, Mycobacterium tuberculosis; conditions: for Mtb CFU compared to the initial intracellular Mtb load (0 h) / CFUs of intracellular Mtb at 48 h compared to before treatment (0 h): 48 h; for CFUs of intracellular Mtb at 48 h compared to before treatment (0 h): 25 and 50 μM
Method: Human monocyte THP-1 cells were seeded at 5 × 10^4 cells / well in 96-well tissue culture black plates with clear bottoms. PMA was used to induce the monocytes to develop into macrophages for 3 days before infection. The tdTomato-expressing Mtb strain was employed for cell infection at an MOI = 20. After a 3 h incubation of the Mtb strain with THP-1 cells, extracellular bacteria were removed by washing twice with the cell culture medium. 200 μL of cell culture medium containing either 25 or 50 μM aurones or 1X MICs of amikacin (AMI, 1 μg/mL), ethambutol (ETH, 0.5 μg/mL), RIF (0.4 μg/mL) and isoniazid (INH) (0.5 μg/mL) was added to each well in triplicate and incubated for 48 h. Infected cells treated with the vehicle buffer served as negative controls. Cells were then lysed and plated for CFU counting.
FIGURE 2 Aurones inhibit intracellular Mtb. (A) Growth ratios of samples treated with the aurone leads or control drugs compared to the growth ratio of untreated control. Growth ratio of each sample = FI of each sample at 48 h / FI of the same sample at 0 h. (B) CFUs of samples treated with the aurone leads or control drugs compared to the CFU of untreated control at 0 and 48 h. 25 and 50 μM of the aurone leads were incubated with the infected cells (MOI = 20) after removing extracellular bacteria. Positive controls: AMI (1 μg/mL), ETH (0.5 μg/mL), INH (0.5 μg/mL), and RIF (0.4 μg/mL). Data are means of three independent experiments ± S.D. *P < 0.05, **P < 0.01, ****P < 0.0001.

[4] = target: Mtb chorismate synthase (Mtb-Cs, Rv2540c) (Mycobacterium tuberculosis, UniProt P9WPY1); assay: Mtb chorismate synthase activity assay (coupled, Pi production with MESG/PNP); format: biochemical; conditions: Pi production at A360, EPSP, FMN 0.04 mM, NADH 0.3 mM
Mtb chorismate synthase (Mtb-Cs, Rv2540c), sequence (P9WPY1 whole entry): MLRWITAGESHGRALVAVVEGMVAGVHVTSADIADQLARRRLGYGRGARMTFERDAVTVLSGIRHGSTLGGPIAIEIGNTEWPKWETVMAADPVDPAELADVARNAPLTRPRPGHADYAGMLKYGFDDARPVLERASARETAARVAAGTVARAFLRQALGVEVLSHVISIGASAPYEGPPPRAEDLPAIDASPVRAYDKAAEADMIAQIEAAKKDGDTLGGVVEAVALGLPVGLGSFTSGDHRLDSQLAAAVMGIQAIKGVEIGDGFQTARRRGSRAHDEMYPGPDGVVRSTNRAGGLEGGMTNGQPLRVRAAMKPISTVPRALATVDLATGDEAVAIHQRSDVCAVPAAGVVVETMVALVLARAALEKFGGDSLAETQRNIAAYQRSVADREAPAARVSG

[5] = MTT cell viability cytotoxicity assay, Vero; format: cell-based, primate; conditions: monkey, vero cells; MTT, 2-days incubation; read-out: IC50 Vero
[6] = tested on: tdTomato-expressing Mtb in the lungs of BALB/c mice; format: in vivo, Mycobacterium tuberculosis; conditions: after a 12-days treatment
[7] = REMA, 7 days incubation, lowest concentration preventing resazurin colour change, read-out: MIC
[8] = MTT, 2-days incubation, PMA-induced macrophages

## CO[C@H]1/C=C/O[C@@]2(C)Oc3c(C)c(O)c4c(O)c(c(/C=N/N5CCN(C)CC5)c(O)c4c3C2=O)NC(=O)/C(C)=C\C=C\[C@H](C)[C@H](O)[C@@H](C)[C@@H](O)[C@@H](C)[C@H](OC(C)=O)[C@@H]1C [RIF, rifampicin, reference compound]
Mtb
  CFU reduction in bacterial burden in the lungs: ~1 log10 CFU
Mtb CDC1551; [7]
  MIC: 0.5 µM (≈ 0.411 µg/mL)
HepG2 cells; MTT, 2-days incubation
  IC50: 4.56 µM
THP-1 cells; [8]
  IC50: 15 µM
Vero cells; MTT, 2-days incubation
  IC50: 22.8 µM

## CN(C)c1ccc(C=C2Oc3cc(Cl)ccc3C2=O)cc1 [Aurone 9501]
Mtb CDC1551
  MIC: 25 µM (≈ 7.49 µg/mL)
[1]
  inhibition at 100 µM: 85 ± 2.24%
HepG2 cells
  IC50: 396 µM
  SI (IC50/MIC) HepG2: 15.85
  selectivity index: > 10
THP-1 cells
  IC50: 325 µM
  SI (IC50/MIC) THP-1: 12.98
[2]; aurone 50 μM
  inhibition of PNP: do not inhibit
[3]; 50 μM
  Mtb CFU compared to the initial intracellular Mtb load (0 h): reduced Mtb CFU significantly
[3]
  CFUs of intracellular Mtb at 48 h compared to before treatment (0 h): did not increase
[4]
  IC50: 5.36 ± 1.65 µM
[5]
  CC50 at 48 h: 1.11 mM
Vero cells
  SI (IC50/MIC) Vero: 44.50
[6]
  Mtb load in the lungs of infected mice: significantly reduced

## CC(=O)N1C(=Cc2ccccc2Br)C(=O)c2ccccc21 [AA2A]
Mtb CDC1551; [7]
  MIC: 25 µM (≈ 8.55 µg/mL)
[1]
  inhibition at 100 µM: 85.95 ± 0.38%
HepG2 cells; MTT, 2-days incubation
  IC50: 118 µM
HepG2 cells
  SI (IC50/MIC) HepG2: 4.71
THP-1 cells; [8]
  IC50: 110 µM
THP-1 cells
  SI (IC50/MIC) THP-1: 4.39
[2]; aurone 200 μM
  inhibition of PNP: do not inhibit
[3]; 50 μM
  Mtb CFU compared to the initial intracellular Mtb load (0 h): reduced Mtb CFU significantly
[3]
  CFUs of intracellular Mtb at 48 h compared to before treatment (0 h): did not increase
[4]
  IC50: 24.1 ± 0.55 µM
Vero cells
  SI (IC50/MIC) Vero: 5.13
Vero cells; MTT, 2-days incubation
  IC50: 128 µM
[6]
  Mtb load in the lungs of infected mice: significantly reduced

## O=C1C(=Cc2ccccc2)Nc2ccccc21 [AA8]
Mtb CDC1551; [7]
  MIC: 50 µM (≈ 11.1 µg/mL)
[1]
  inhibition at 100 µM: 71.9 ± 2%
HepG2 cells; MTT, 2-days incubation
  IC50: 399 µM
HepG2 cells
  SI (IC50/MIC) HepG2: 7.99
THP-1 cells; [8]
  IC50: 504 µM
THP-1 cells
  SI (IC50/MIC) THP-1: 10.08
[2]; aurone 200 μM
  inhibition of PNP: do not inhibit
[3]
  CFUs of intracellular Mtb at 48 h compared to before treatment (0 h): did not increase
[4]
  IC50: 50.3 ± 8.61 µM
Vero cells
  SI (IC50/MIC) Vero: 5.58
Vero cells; MTT, 2-days incubation
  IC50: 279 µM
[6]
  Mtb load in the lungs of infected mice: significantly reduced

## CC(=O)N1/C(=C\c2ccccc2O)C(=O)c2ccccc21 [AA3A]
[1]
  Inhibitory rate: 41.32 ± 9.99%

## CC(=O)N1/C(=C\c2ccc(CO)o2)C(=O)c2ccccc21 [AA4A]
[1]
  Inhibitory rate: 66.18 ± 0.98%

## CN(C)c1ccc(C=C2Oc3c(Br)cccc3C2=O)cc1 [Aurone 9505]
Mtb CDC1551; [7]
  MIC: 12.5 µM (≈ 4.3 µg/mL)
[1]
  inhibition at 100 µM: 84.4 ± 2.99%
HepG2 cells; MTT, 2-days incubation
  IC50: 29.3 µM
HepG2 cells
  SI (IC50/MIC) HepG2: 2.34
THP-1 cells; [8]
  IC50: 219 µM
THP-1 cells
  SI (IC50/MIC) THP-1: 17.56
[2]; aurone 50 μM
  inhibition of PNP: do not inhibit
[3]; 25 μM
  Mtb CFU compared to the initial intracellular Mtb load (0 h): reduced Mtb CFU significantly
[3]; 50 μM
  Mtb CFU compared to the initial intracellular Mtb load (0 h): reduced Mtb CFU significantly
[3]
  CFUs of intracellular Mtb at 48 h compared to before treatment (0 h): did not increase
[4]
  IC50: 24.5 ± 9.44 µM
Vero cells
  SI (IC50/MIC) Vero: 38.34
Vero cells; MTT, 2-days incubation
  IC50: 479 µM

## Cc1cc2c(cc1C)C(=O)C(=Cc1ccc(N(C)C)cc1)O2 [Aurone 9510]
Mtb CDC1551; [7]
  MIC: 25 µM (≈ 7.33 µg/mL)
[1]
  inhibition at 100 µM: 83.1 ± 1.62%
HepG2 cells; MTT, 2-days incubation
  IC50: 451 µM
HepG2 cells
  SI (IC50/MIC) HepG2: 18.06
  selectivity index: > 10
THP-1 cells; [8]
  IC50: 693 µM
THP-1 cells
  SI (IC50/MIC) THP-1: 27.71
[2]; aurone 50 μM
  inhibition of PNP: do not inhibit
[3]; 25 μM, at 48 h
  intracellular Mtb replication: did not fully inhibit
[4]
  IC50: 15.1 ± 1.68 µM
Vero cells
  SI (IC50/MIC) Vero: 35.69
Vero cells; MTT, 2-days incubation
  IC50: 892 µM

## CN(C)c1ccc(C=C2Oc3cc(Br)ccc3C2=O)cc1 [Aurone 9504]
Mtb CDC1551
  MIC: 6.25 µM (≈ 2.15 µg/mL)
[1]
  inhibition at 100 µM: 88.29 ± 0.16%
HepG2 cells
  IC50: 790 µM
  SI (IC50/MIC) HepG2: 126.40
  selectivity index: > 10
THP-1 cells
  IC50: 628 µM
  SI (IC50/MIC) THP-1: 100.50
[2]; aurone 50 μM
  inhibition of PNP: do not inhibit
[3]; 50 μM
  Mtb CFU compared to the initial intracellular Mtb load (0 h): reduced Mtb CFU significantly
[3]
  CFUs of intracellular Mtb at 48 h compared to before treatment (0 h): did not increase
[4]
  IC50: 17.1 ± 1.07 µM
Vero cells
  SI (IC50/MIC) Vero: 87.98
  IC50: 550 µM
[6]
  Mtb load in the lungs of infected mice: significantly reduced

## CC(=O)N1/C(=C\c2ccc[nH]2)C(=O)c2ccccc21 [AA5A]
[1]
  Inhibitory rate: 69.93 ± 10.09 %

Reference: article PMC7251074, “Identification of Anti-tuberculosis Compounds From Aurone Analogs” (Frontiers in Microbiology, 2020)
